# Measurements as given in patent US12234482B2, “Culture medium for expanding and culturing human liver progenitor cells and application thereof” (Guangzhou Institutes of Biomedicine and Health, Chinese …, priority 2019, dated 2025).
# Key:
# HBs [1] = assay: Effects of signaling pathways regulated by small molecules on proliferation of HBs; format: cell-based, human; settings: small molecule regulating a signaling pathway; FIGS. 2B and 2C
# Experimental: Further, effects of the signaling pathways on the proliferation and differentiation of HBs were analyzed by regulating the related signaling pathways with small molecules.
# HBs [2] = assay: Effects of signaling pathways regulated by small molecules on characteristics of HBs (AFP expression); format: cell-based, human; settings: FIG. 2D
# Source text: In addition to proliferation, the effects of the related signaling pathways on the characteristics of HBs were further analyzed.
Compound,proliferation of HBs (HBs [1]),expression of AFP / maintenance of the characteristics of HBs (HBs [2])
"Cc1c[nH]c(-c2cnc(NCCNc3ccc(C#N)cn3)nc2-c2ccc(Cl)cc2Cl)n1 [CHIR, CHIR99021]",promoted the proliferation of HBs,inhibited the expression of AFP
CNC1CCC(N(Cc2cccc(-c3ccncc3)c2)C(=O)c2sc3ccccc3c2Cl)CC1 (stereo not drawn) [SAG],promoted the proliferation of HBs,promoted the expression of liver cell-related genes such as AFP
Cc1cccc(-c2nn(C(=S)Nc3ccccc3)cc2-c2ccnc3ccccc23)n1 [A8301],promoted the proliferation of HBs,promoted the expression of liver cell-related genes such as AFP
